US10870635B2, “Compounds and their use as BACE1 inhibitors” (ALLGENESIS BIOTHERAPEUTICS, INC., priority 2015, dated 2020)
Read-outs that look alike come from different tables or passages of the source.

Tested on: cellular production of amyloid β peptide (Aβ40) in 7PA2 CHO cells
Test: Cell amyloid-beta production assay (MSD electrochemiluminescence immunoassay)
Type: cell-based
Details: 12 hours incubation, read-out: Cell Abeta40 IC50
Description: Amyloid-β (Aβ) is a 33-42-amino acid post-proteolytic peptide generated as the result of the sequential cleavage of amyloid precursor protein (APP) by BACE1 and γ-secretase. Substantial evidence points to aggregation and deposition of certain isoforms of amyloid β peptide in the brain being causal to neurodegeneration and dementia typical of AD. There are two major isoforms of Aβ which are monitored as a biomarker to gain early read on Aβ aggregation: Aβ340 and Aβ342. Increased extracellular accumulation of amyloid β peptide results in the formation of amyloid β peptide oligomers, cerebral amyloid plaques, neurodegeneration, and ultimately brain atrophy, all of which play a pivotal role in AD neuropathological hallmarks.
The reagents for the cell amyloid beta production assay were prepared as follows.
7PA2 CHO cells (licensed from Dr. Dennis Selkoe's laboratory) were plated into 96-well plates at a density of 50,000 cells per […] complete medium (DMEM medium containing 10% fetal bovine serum, L-glutamine, penicillin/streptomycin and 200 μg/ml of G418). Cells were incubated for 16-18 hours in complete medium and the culture medium was aspirated and discarded. Fresh complete medium containing test articles or positive control, LY2886721, within drug concentration range from 0.01 to 100 nM or complete medium only (controls) was added for 12 hours, and the cell culture medium was assayed directly or following a dilution with complete cell culture medium and frozen at −80° C. until it could be assayed for Aβ38, Aβ40 and Aβ42 content using an MSD multiplex electrochemiluminescence immunoassay.
In the Meso Scale Discovery electrochemiluminescence immunoassay, on a block plate, add 150 μL of Diluent 35 to each well, seal the plate with an adhesive plate seal and incubate with shaking for 1 hour at room temperature. Wash and then add detection antibody solution and samples. Wash the plate 3 times with at least 150 μL/well of wash buffer. […] Add 150 μL of 2× Read Buffer T to each well. Read the plate on the MSD imager. No incubation in read buffer is required before reading the plate. […]

| SMILES | IC50 (Cricetulus griseus, CHO, 12 h) | IC50 |
| --- | --- | --- |
| CC#Cc1ccc2sc3ccc([C@]4(C)CS(=O)(=O)C(C)(C)C(N)=N4)cc3c2c1 [Example 103, (R)-5-Amino-3,6,6-trimethyl-3-(8-(prop-1-yn-1-yl)dibenzo[b,d]thiophen-2-yl)-3,6-dihydro-2H-1,4-thiazine 1,1-dioxide] | 13 nM |  |
| CC#Cc1ccc2sc3cc(F)c([C@]4(C)CS(=O)(=O)C(C)(C)C(=N)N4)cc3c2c1 [Example 109, (R)-5-Amino-3-(3-fluoro-8-(prop-1-yn-1-yl)dibenzo[b,d]thiophen-2-yl)-3,6,6-trim ethyl-3,6-dihydro-2H-1,4-thiazine 1,1-dioxide] | 5.5 ± 1.95 nM | 5 nM |
